Read-outs that look alike come from different tables or passages of the source.
Columns and labels:
A2780 cells = test: In-vitro cell proliferation assay (SRB), A2780 cells; assay type: cell-based; conditions: A2780 cells, 72 hours, SRB, read-out: A2780 IC50;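 further: viable cell number read as SRB absorbance, background from media-only wells subtracted, IC50 interpolated from percent inhibition at two bracketing compound concentrations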
NAMPT = NAMPT (Homo sapiens (Human), UniProt P43490); test: NAMPT biochemical inhibition assay (NMN quantified by mass spectrometry)
Sequence of NAMPT (P43490 whole entry): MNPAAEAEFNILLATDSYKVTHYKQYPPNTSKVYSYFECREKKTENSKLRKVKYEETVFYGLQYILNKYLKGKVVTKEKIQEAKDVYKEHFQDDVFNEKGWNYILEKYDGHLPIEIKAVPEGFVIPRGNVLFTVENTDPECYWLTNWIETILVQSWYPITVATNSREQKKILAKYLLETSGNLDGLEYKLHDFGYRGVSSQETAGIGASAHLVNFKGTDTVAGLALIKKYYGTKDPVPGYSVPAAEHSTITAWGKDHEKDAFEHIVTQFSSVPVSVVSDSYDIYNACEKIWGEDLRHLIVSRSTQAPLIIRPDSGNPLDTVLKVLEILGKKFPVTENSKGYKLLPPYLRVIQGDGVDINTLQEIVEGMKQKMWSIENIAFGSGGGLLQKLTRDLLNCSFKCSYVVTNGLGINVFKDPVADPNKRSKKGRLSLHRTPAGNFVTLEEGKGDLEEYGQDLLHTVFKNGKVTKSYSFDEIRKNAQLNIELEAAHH

[1] = NAMPT biochemical inhibition, read-out: Biochem IC50

Row | SMILES | IC50 (A2780 cells; Homo sapiens, A2780, 72 h) | IC50 (NAMPT; [1]) | IC50 (NAMPT) | IC50 (A2780 cells)
1 | O=C(NCc1cccnc1)Nc1ccc(S(=O)(=O)N2CCN(CC(=O)N3CCOCC3)CC2)cc1 [1-(4-{4-[2-(morpholin-4-yl)-2-oxoethyl]piperazine-1-sulfonyl}phenyl)-3-(pyridin-3-ylmethyl)urea] | 135 nM | 4 nM |  | 
2 | O=C(NCc1cccnc1)Nc1ccc(S(=O)(=O)N2CCN(CC(=O)N3CCCCC3)CC2)cc1 [1-(4-{4-[2-oxo-2-(piperidin-1-yl)ethyl]piperazine-1-sulfonyl}phenyl)-3-(pyridin-3-ylmethyl)urea] | 21 nM | 9 nM |  | 
3 | O=C(NCc1cccnc1)Nc1ccc(S(=O)(=O)N2CCN(CC(=O)N3CCCC3)CC2)cc1 [1-(4-{4-[2-oxo-2-(pyrrolidin-1-yl)ethyl]piperazine-1-sulfonyl}phenyl)-3-(pyridin-3-ylmethyl)urea] | 99 nM | 4 nM |  | 
4 | O=C(NCc1cccnc1)Nc1ccc(S(=O)(=O)N2CCN(CCCN3CCOCC3)CC2)cc1 [1-(4-{4-[3-(morpholin-4-yl)propyl]piperazine-1-sulfonyl}phenyl)-3-(pyridin-3-ylmethyl)urea] | 24 nM | 3 nM |  | 
5 | O=C(NCc1cccnc1)Nc1ccc(S(=O)(=O)N2CCC(CN3CCCC3=O)CC2)cc1 [1-(4-{4-[(2-oxopyrrolidin-1-yl)methyl]piperidine-1-sulfonyl}phenyl)-3-(pyridin-3-ylmethyl)urea] | 78 nM | 2 nM |  | 
6 | O=C(NCc1cccnc1)Nc1ccc(S(=O)(=O)N2CCN(C(=O)c3ccco3)CC2)cc1 [1-(4-{4-[(furan-2-yl)carbonyl]piperazine-1-sulfonyl}phenyl)-3-(pyridin-3-ylmethyl)urea] | 168 nM | 4 nM |  | 
7 | O=C(NCc1cccnc1)Nc1ccc(S(=O)(=O)N2C3CCCC2CC3)cc1 [1-(4-{8-azabicyclo[3.2.1]octane-8-sulfonyl}phenyl)-3-(pyridin-3-ylmethyl)urea] | 64 nM |  | 4 nM | 
8 | O=C(NCc1cccnc1)Nc1ccc(S(=O)(=O)N2CCC3(CCCC3)CC2)cc1 [1-(4-{8-azaspiro[4.5]decane-8-sulfonyl}phenyl)-3-(pyridin-3-ylmethyl)urea] | 343 nM | 4 nM |  | 
9 | O=C(NCc1cccnc1)Nc1ccc(S(=O)(=O)c2cccc3c2oc2ccccc23)cc1 [1-(4-{8-oxatricyclo[7.4.0.0^2,^7]trideca-1(9),2(7),3,5,10,12-hexaene-6-sulfonyl}phenyl)-3-(pyridin-3-ylmethyl)urea] |  | 2 nM |  | 3 nM
10 | O=C(NCc1cccnc1)Nc1ccc(S(=O)(=O)Nc2ccccc2N2CCOCC2)cc1 [1-(4-{[2-(morpholin-4-yl)phenyl]sulfamoyl}phenyl)-3-(pyridin-3-ylmethyl)urea] | 11 nM | 5 nM |  | 
11 | O=C(NCc1cccnc1)Nc1ccc(S(=O)(=O)c2ccccc2CN2CCOCC2)cc1 [1-(4-{[2-(morpholin-4-ylmethyl)benzene]sulfonyl}phenyl)-3-(pyridin-3-ylmethyl)urea] | 7.9 nM | 3.6 nM |  | 
12 | O=C(NCc1cccnc1)Nc1ccc(S(=O)(=O)Nc2ccccc2N2CCCCC2)cc1 [1-(4-{[2-(piperidin-1-yl)phenyl]sulfamoyl}phenyl)-3-(pyridin-3-ylmethyl)urea] | 18 nM | 4 nM |  | 
13 | O=C(NCc1cccnc1)Nc1ccc(S(=O)(=O)c2cccc(-n3cccn3)c2)cc1 [1-(4-{[3-(1H-pyrazol-1-yl)benzene]sulfonyl}phenyl)-3-(pyridin-3-ylmethyl)urea] | 98 nM | 2.2 nM |  | 
14 | O=C(NCc1cccnc1)Nc1ccc(S(=O)(=O)c2cccc(OCC3CC3)c2)cc1 [1-(4-{[3-(cyclopropylmethoxy)benzene]sulfonyl}phenyl)-3-(pyridin-3-ylmethyl)urea] | 100 to 1000 nM | 8.6 nM |  | 
15 | O=C(NCc1cccnc1)Nc1ccc(S(=O)(=O)Nc2cccc(N3CCOCC3)c2)cc1 [1-(4-{[3-(morpholin-4-yl)phenyl]sulfamoyl}phenyl)-3-(pyridin-3-ylmethyl)urea] | 103 nM | 6 nM |  | 
16 | O=C(NCc1cccnc1)Nc1ccc(S(=O)(=O)c2ccc(-n3cccn3)cc2)cc1 [1-(4-{[4-(1H-pyrazol-1-yl)benzene]sulfonyl}phenyl)-3-(pyridin-3-ylmethyl)urea] | 55 nM | 5.5 nM |  | 
17 | O=C(NCc1cccnc1)Nc1ccc(S(=O)(=O)c2ccc(N3CCOCC3)cc2)cc1 [1-(4-{[4-(morpholin-4-yl)benzene]sulfonyl}phenyl)-3-(pyridin-3-ylmethyl)urea] | 14.7 nM | 1.8 nM |  | 
18 | O=C(NCc1cccnc1)Nc1ccc(S(=O)(=O)Nc2ccc(N3CCOCC3)cc2)cc1 [1-(4-{[4-(morpholin-4-yl)phenyl]sulfamoyl}phenyl)-3-(pyridin-3-ylmethyl)urea] | 173 nM | 5 nM |  | 
19 | O=C(NCc1cccnc1)Nc1ccc(S(=O)(=O)Nc2ccc(N3CCCCC3)cc2)cc1 [1-(4-{[4-(piperidin-1-yl)phenyl]sulfamoyl}phenyl)-3-(pyridin-3-ylmethyl)urea] | 54 nM | 4 nM |  | 
20 | O=C(NCc1cccnc1)Nc1ccc(S(=O)(=O)Nc2ccccc2OC(F)(F)F)cc1 [1-(pyridin-3-ylmethyl)-3-(4-{[2-(trifluoromethoxy)phenyl]sulfamoyl}phenyl)urea] | 7 nM | 1.2 nM |  | 

Row | SMILES | IC50 (A2780 cells; Homo sapiens, A2780, 72 h) | IC50 (NAMPT; [1]) | IC50 (NAMPT) | IC50 (A2780 cells)
21 | O=C(NCc1cccnc1)Nc1ccc(S(=O)(=O)c2ccccc2C(F)(F)F)cc1 [1-(pyridin-3-ylmethyl)-3-(4-{[2-(trifluoromethyl)benzene]sulfonyl}phenyl)urea] | 569 nM | 3 nM |  | 
22 | O=C(NCc1cccnc1)Nc1ccc(S(=O)(=O)c2cccc(OC(F)(F)F)c2)cc1 [1-(pyridin-3-ylmethyl)-3-(4-{[3-(trifluoromethoxy)benzene]sulfonyl}phenyl)urea] | 83 nM | 1 nM |  | 
23 | O=C(NCc1cccnc1)Nc1ccc(S(=O)(=O)c2ccc(OC(F)(F)F)cc2)cc1 [1-(pyridin-3-ylmethyl)-3-(4-{[4-(trifluoromethoxy)benzene]sulfonyl}phenyl)urea] | 420 nM | 5 nM |  | 
24 | O=C(NCc1cccnc1)Nc1ccc(S(=O)(=O)c2ccc(C(F)(F)F)cc2)cc1 [1-(pyridin-3-ylmethyl)-3-(4-{[4-(trifluoromethyl)benzene]sulfonyl}phenyl)urea] | 604 nM | 9 nM |  | 
25 | C[C@@H]1[C@H]2C[C@@H](C[C@H]1NS(=O)(=O)c1ccc(NC(=O)NCc3cccnc3)cc1)C2(C)C [1-(pyridin-3-ylmethyl)-3-(4-{[(1R,2R,3R,5S)-2,6,6-trimethylbicyclo[3.1.1]heptan-3-yl]sulfamoyl}phenyl)urea] | 91 nM | 80 nM |  | 
26 | O=C(NCc1cccnc1)Nc1ccc(S(=O)(=O)n2cccc2)cc1 [1-(pyridin-3-ylmethyl)-3-[4-(1H-pyrrole-1-sulfonyl)phenyl]urea] | 1790 nM | 19 nM |  | 
27 | CC1CCN(S(=O)(=O)c2ccc(NC(=O)NCc3cccnc3)cc2)CC(C)(C)C1 (stereo not drawn) [1-(pyridin-3-ylmethyl)-3-[4-(3,3,5-trimethylazepane-1-sulfonyl)phenyl]urea] | 9.2 nM | 2 nM |  | 
28 | O=C(NCc1cccnc1)Nc1ccc(S(=O)(=O)C(F)(F)F)cc1 [1-(pyridin-3-ylmethyl)-3-[4-(trifluoromethane)sulfonylphenyl]urea] | 10000 nM | 226 nM |  | 
29 | O=C(NCc1cccnc1)Nc1ccc(S(=O)(=O)N2CCCC(C(F)(F)F)C2)cc1 (stereo not drawn) [1-(pyridin-3-ylmethyl)-3-{4-[3-(trifluoromethyl)piperidine-1-sulfonyl]phenyl}urea] | 26 nM | 3 nM |  | 
30 | O=C(NCc1cccnc1)Nc1ccc(S(=O)(=O)c2ccc(C(F)(F)F)nc2)cc1 [1-(pyridin-3-ylmethyl)-3-{4-[6-(trifluoromethyl)pyridine-3-sulfonyl]phenyl}urea] | 1000 to 10000 nM | 27.9 nM |  | 
31 | Cc1cc(C)c(S(=O)(=O)c2ccc(NC(=O)NCc3cccnc3)cc2)c(C)c1 [1-(pyridin-3-ylmethyl)-3-{4-[(2,4,6-trimethylbenzene)sulfonyl]phenyl}urea] | > 1000 nM | 11 nM |  | 
32 | NS(=O)(=O)c1cccc(S(=O)(=O)c2ccc(NC(=O)NCc3cccnc3)cc2)c1 [1-(pyridin-3-ylmethyl)-3-{4-[(3-sulfamoylbenzene)sulfonyl]phenyl}urea] | 100 to 1000 nM | 3.8 nM |  | 
33 | O=C(NCc1cccnc1)Nc1ccc(S(=O)(=O)N2CCC[C@H](C(F)(F)F)C2)cc1 [1-(pyridin-3-ylmethyl)-3-{4-[(3S)-3-(trifluoromethyl)piperidine-1-sulfonyl]phenyl}urea] | 29 nM | 3 nM |  | 
34 | O=C(NCc1cccnc1)Nc1ccc(S(=O)(=O)c2cccc3[nH]ccc23)cc1 [1-[4-(1H-indole-4-sulfonyl)phenyl]-3-(pyridin-3-ylmethyl)urea] | 13.4 nM | 1.6 nM |  | 
35 | O=C(NCc1cccnc1)Nc1ccc(S(=O)(=O)c2cccc3cc[nH]c23)cc1 [1-[4-(1H-indole-7-sulfonyl)phenyl]-3-(pyridin-3-ylmethyl)urea] | 3.4 nM | 0.5 nM |  | 
36 | O=C(NCc1cccnc1)Nc1ccc(S(=O)(=O)c2ccc3c(c2)OCCO3)cc1 [1-[4-(2,3-dihydro-1,4-benzodioxine-6-sulfonyl)phenyl]-3-(pyridin-3-ylmethyl)urea] | 100 to 1000 nM | 1.1 nM |  | 
37 | O=C(NCc1cccnc1)Nc1ccc(S(=O)(=O)c2cccc3c2OCC3)cc1 [1-[4-(2,3-dihydro-1-benzofuran-7-sulfonyl)phenyl]-3-(pyridin-3-ylmethyl)urea] | 10.5 nM | 1.1 nM |  | 
38 | CC1CCCC(C)N1S(=O)(=O)c1ccc(NC(=O)NCc2cccnc2)cc1 (stereo not drawn) [1-[4-(2,6-dimethylpiperidine-1-sulfonyl)phenyl]-3-(pyridin-3-ylmethyl)urea] | 164 nM | 11 nM |  | 
39 | O=C(NCc1cccnc1)Nc1ccc(S(=O)(=O)c2cccc3c2OCO3)cc1 [1-[4-(2H-1,3-benzodioxole-4-sulfonyl)phenyl]-3-(pyridin-3-ylmethyl)urea] | 100 to 1000 nM | 4.3 nM |  | 
